Target: SARS-CoV-2 3CL Protease (Severe acute respiratory syndrome coronavirus 2, UniProt P0DTD1)
Assay: 3CL protease SARS-CoV-2 activity (M^Pro assay), fluorescence kit
Format: biochemical
Settings: for Kinetic Activity: positive control 120; for ∆RFU: ∆T 30, positive control 100

| Compound | IC50 | Kinetic Activity (Conc. 0.1) | ∆RFU (Conc. 0.1) | Kinetic Activity (Conc. 1) | ∆RFU (Conc. 1) | Kinetic Activity (Conc. 10) | ∆RFU (Conc. 10) | Kinetic Activity (Conc. 100) | ∆RFU (Conc. 100) | reduction of the protease activity (in words) (final concentration of 50 μM, compared to the plumbagin positive standard) |
| --- | --- | --- | --- | --- | --- | --- | --- | --- | --- | --- |
| O=c1cc(-c2ccc(O)c(-c3c(O)cc(O)c4c(=O)cc(-c5ccc(O)cc5)oc34)c2)oc2cc(O)cc(O)c12 [Compound 2, amentoflavone] | 136 µM | 117.505 | 97.92 | 112.981 | 94.15 | 94.7529 | 78.96 | 44.4244 | 37.02 | – |
| O=c1cc(-c2ccc(O)cc2)oc2c([C@@H]3O[C@H](CO)[C@@H](O)[C@H](O)[C@H]3O)c(O)cc(O)c12 [Compound 3, vitexin] | 231 µM | 117.109 | 97.59 | 110.257 | 91.88 | 99.133 | 82.61 | 46.7405 | 38.95 | – |
| C[C@@H]1O[C@@H](OC[C@H]2O[C@@H](Oc3c(-c4ccc(O)c(O)c4)oc4cc(O)cc(O)c4c3=O)[C@H](O)[C@@H](O)[C@@H]2O)[C@H](O)[C@H](O)[C@H]1O [Compound 4, rutin] | – | 116.077 | 96.73 | 110.065 | 91.72 | 92.9049 | 77.42 | 32.3043 | 26.92 | – |
| C[C@@H]1O[C@@H](O[C@H]2[C@H](Oc3cc(O)c4c(c3)O[C@H](c3ccc(O)cc3)CC4=O)O[C@H](CO)[C@@H](O)[C@@H]2O)[C@H](O)[C@H](O)[C@H]1O [Compound 5, naringin] | 28.6 µM | 117.637 | 98.03 | 101.965 | 84.97 | 80.2328 | 66.86 | 25.8243 | 21.52 | significant reduction |
| Oc1cc(O)c2c(c1)O[C@H](c1ccc(O)c(O)c1)[C@@H](O)C2 [Compound 6, catechin] | 90.3 µM | 113.953 | 94.96 | 107.173 | 89.31 | 83.2328 | 69.36 | 33.3003 | 27.75 | – |
| O=C(O)/C=C/c1ccc(O)cc1 [Compound 7, p-coumaric acid] | 471 µM | 118.477 | 98.73 | 113.905 | 94.92 | 100.333 | 83.61 | 42.0724 | 35.06 | – |
| O=C(O)c1cc(O)c(O)c(O)c1 [Compound 8, gallic acid] | 178 µM | 117.505 | 97.92 | 109.237 | 91.03 | 93.0969 | 77.58 | 29.8323 | 24.86 | – |
| CC1=CC(=O)c2c(O)cccc2C1=O [Plumbagin, reference compound] | 87.6 µM | 115.069 | 95.89 | 102.853 | 85.71 | 77.9528 | 64.96 | 27.0243 | 22.52 | – |

From PMC9572397, “Garcinia cambogia Phenolics as Potent Anti-COVID-19 Agents: Phytochemical Profiling, Biological Activities, and Molecular Docking” (Plants, 2022)
